In brackets after ≈: the same amount, converted by molar mass. Activity calls are given as the source filed them. The rule behind the calls is not given here.
Tests used:
[1] = test system: Klebsiella pneumoniae; experiment: Antibiotic adjuvant activity against meropenem-treated NDM-producing carbapenem resistant Klebsiella pneumoniae infected in BALB/c mouse sepsis model assessed as mouse rescue at 10 mg/kg, ip in the presence of meropenem measured after 48 hrs; format: functional
[2] = Zinc chelation-dependent inhibition of IMP-4 (unknown origin) expressed in Escherichia coli BL21 (DE3) using imipenem as substrate preincubated with enzyme for 5 to 10 mins followed by substrate addition
[3] = test system: Escherichia coli; experiment: Antibacterial activity against IMP-4 producing Escherichia coli DH5alpha assessed as decrease in bacterial growth incubated for 16 to 20 hrs by CLSI based microdilution method; format: functional; conditions: DH5[alpha], time 16-20 hrs
[4] = test system: Enterobacter cloacae; experiment: Antibacterial activity against MBL producing Enterobacter cloacae isolates assessed as inhibition of bacterial growth at 64 ug/ml incubated for 16 to 20 hrs by CLSI based microdilution method; format: functional, organism-based; conditions: dose 64.0 µg/ml, time 16-20 hrs
[5] = test system: Escherichia coli; experiment: Antibacterial activity against MBL producing Escherichia coli isolates assessed as inhibition of bacterial growth at 64 ug/ml incubated for 16 to 20 hrs by CLSI based microdilution method; format: functional, organism-based; conditions: dose 64.0 µg/ml, time 16-20 hrs
[6] = test system: Citrobacter freundii; experiment: Antibacterial activity against MBL producing Citrobacter freundii isolates assessed as inhibition of bacterial growth at 64 ug/ml incubated for 16 to 20 hrs by CLSI based microdilution method; format: functional, organism-based; conditions: dose 64.0 µg/ml, time 16-20 hrs
[7] = test system: Enterobacter hormaechei; experiment: Antibacterial activity against MBL producing Enterobacter hormaechei isolates assessed as inhibition of bacterial growth at 64 ug/ml incubated for 16 to 20 hrs by CLSI based microdilution method; format: functional, organism-based; conditions: dose 64.0 µg/ml, time 16-20 hrs
[8] = test system: Escherichia coli; experiment: Antibiotic adjuvant activity against meropenem-treated VIM-1 producing Escherichia coli DH5 alpha assessed as bacterial growth at 8 ug/ml incubated for 16 to 20 hrs in the presence of meropenem and 100 uM zinc sulfate by CLSI based microdilution method; format: functional; conditions: dose 8 µg/ml; time 16-20 hrs
[9] = test system: Escherichia coli; experiment: Antibiotic adjuvant activity against meropenem-treated VIM-1 producing Escherichia coli DH5 alpha assessed as inhibition of bacterial growth at 8 ug/ml incubated for 16 to 20 hrs in the presence of meropenem and 1 to 10 uM zinc sulfate by CLSI based microdilution method; format: functional, organism-based; conditions: dose 8.0 µg/ml, time 16-20 hrs
[10] = test system: Escherichia coli; experiment: Antibacterial activity against VIM-1 producing Escherichia coli DH5 alpha assessed as bacterial growth at 8 ug/ml incubated for 16 to 20 hrs by CLSI based microdilution method; format: functional; conditions: dose 8 µg/ml; time 16-20 hrs
[11] = test system: Escherichia coli; experiment: Antibiotic adjuvant activity against meropenem-treated IMP-4 producing Escherichia coli DH5 alpha assessed as inhibition of bacterial growth at 8 ug/ml incubated for 16 to 20 hrs in the presence of meropenem and 1 to 10 uM zinc sulfate by CLSI based microdilution method; format: functional, organism-based; conditions: dose 8.0 µg/ml, time 16-20 hrs
[12] = Toxicity in sheep RBC assessed as induction of hemolysis measured after 1 hr; format: tissue-based, Ovis aries, Erythrocyte; conditions: sheep red blood cells
[13] = test system: GES1; experiment: Cytotoxicity against human GES1 cells assessed as live cells by measuring green fluorescence at 32 ug/ml measured after 24 hrs by calceinAM/propidium iodide staining based fluorescence microscopy; format: cell-based; conditions: ges1, 24 h, dose 32 µg/ml
[14] = Acute toxicity in BALB/c mouse assessed as survival rate at 10 to 50 mg/kg, ip administered as single dose measured for 72 hrs; format: organism-based; conditions: in vivo, dose 10-50 mg/kg
[15] = Acute toxicity in BALB/c mouse assessed as pathological changes in liver at 50 mg/kg, ip administered as single dose measured after 24 hrs by hematoxylin and eosin staining based assay; format: organism-based; conditions: in vivo
[16] = Acute toxicity in BALB/c mouse assessed as change in WBC count at 50 mg/kg, ip administered as single dose measured after 24 hrs; format: organism-based; conditions: in vivo
[17] = Acute toxicity in BALB/c mouse assessed as change in RBC count at 50 mg/kg, ip administered as single dose measured after 24 hrs; format: organism-based; conditions: in vivo
[18] = Acute toxicity in BALB/c mouse assessed as change in platelet count at 50 mg/kg, ip administered as single dose measured after 24 hrs; format: organism-based; conditions: in vivo
[19] = Acute toxicity in BALB/c mouse assessed as change in albumin level in serum at 50 mg/kg, ip administered as single dose measured after 24 hrs; format: organism-based; conditions: in vivo
[20] = Acute toxicity in BALB/c mouse assessed as change in urea level in serum at 50 mg/kg, ip administered as single dose measured after 24 hrs; format: organism-based; conditions: in vivo
[21] = Non competitive inhibition of VIM-2 (unknown origin) assessed as inhibition of substrate hydrolysis by measuring decrease in Vmax using nitrocefin as substrate preincubated with enzyme for 5 mins followed by substrate addition by Lineweaver-Burk plot analysis
[22] = test system: Escherichia coli; experiment: Antibiotic adjuvant activity against meropenem-treated IMP-4 producing Escherichia coli DH5 alpha assessed as bacterial growth at 8 ug/ml incubated for 16 to 20 hrs in the presence of meropenem by CLSI based microdilution method; format: functional; conditions: dose 8 µg/ml; time 16-20 hrs
[23] = test system: Escherichia coli; experiment: Antibiotic adjuvant activity against meropenem-treated NDM-1 producing Escherichia coli DH5 alpha assessed as bacterial growth at 8 ug/ml incubated for 16 to 20 hrs in the presence of meropenem by CLSI based microdilution method; format: functional; conditions: dose 8 µg/ml; time 16-20 hrs
[24] = test system: Escherichia coli; experiment: Antibiotic adjuvant activity against meropenem-treated NDM-1 producing Escherichia coli DH5 alpha assessed as inhibition of bacterial growth at 8 ug/ml incubated for 16 to 20 hrs in the presence of meropenem and 1 to 10 uM zinc sulfate by CLSI based microdilution method; format: functional, organism-based; conditions: dose 8.0 µg/ml, time 16-20 hrs
[25] = test system: Escherichia coli; experiment: Antibiotic adjuvant activity against meropenem-treated NDM-1 producing Escherichia coli DH5 alpha assessed as inhibition of bacterial growth at 8 ug/ml incubated for 16 to 20 hrs in the presence of meropenem and 100 uM zinc sulfate by CLSI based microdilution method; format: functional, organism-based; conditions: dose 8.0 µg/ml, time 16-20 hrs
[26] = test system: Klebsiella pneumoniae; experiment: Antibiotic adjuvant activity against meropenem-treated NDM-producing carbapenem resistant Klebsiella pneumoniae infected in BALB/c mouse sepsis model assessed as reduction of bacterial load in liver at 10 mg/kg, ip in the presence of meropenem observed for 2 days; format: functional, organism-based; conditions: time 2.0 day
[27] = test system: Klebsiella pneumoniae; experiment: Antibiotic adjuvant activity against meropenem-treated NDM-producing carbapenem resistant Klebsiella pneumoniae infected in BALB/c mouse sepsis model assessed as complete liver lobule structure with radially arranged hepatic cords and visible central veins at 10 mg/kg, ip in the presence of meropenem observed for 2 days by HE staining based assay; format: functional, organism-based; conditions: time 2.0 day
[28] = test system: Escherichia coli; experiment: Synergistic antibacterial activity against IMP-4 producing Escherichia coli DH5alpha assessed as fractional inhibitory concentration index incubated for 16 to 20 hrs in presence of meropenem by checkerboard assay; format: functional, DH5[alpha]; conditions: time 16-20 hrs
[29] = test system: Escherichia coli; experiment: Antibiotic adjuvant activity against IMP-4 producing Escherichia coli DH5alpha assessed as potentiation of meropenem-induced antibacterial activity incubated for 16 to 20 hrs by agar disc diffusion assay; format: functional, organism-based; conditions: DH5[alpha], time 16-20 hrs
[30] = test system: Escherichia coli; experiment: Antibiotic adjuvant activity against NDM-1 producing Escherichia coli DH5alpha assessed as potentiation of meropenem-induced antibacterial activity incubated for 16 to 20 hrs by agar disc diffusion assay; format: functional, organism-based; conditions: DH5[alpha], time 16-20 hrs
[31] = test system: Escherichia coli; experiment: Antibiotic adjuvant activity against NDM-1 producing Escherichia coli DH5alpha assessed as potentiation of meropenem-induced antibacterial activity by measuring meropenem MIC at 16 ug/ml incubated for 16 to 20 hrs by checkerboard assay (reference value: 32 ug/ml); format: functional; conditions: DH5[alpha], dose 16 µg/ml, time 16-20 hrs

With `C[C@@H](C(=O)O)N(Cc1cccc(C(=O)O)n1)Cc1cccc(C(=O)O)n1` as the compound, how does the Activity [1] read?
The Activity was 83%.

And the IC50 [2]?
The IC50 was 4.17 µM.

And the MIC [3]?
Its MIC is 128 µg/mL (≈ 356 µM).

And the Activity [4]?
Its Activity is “inactive”.

And the Activity [5]?
The Activity was “inactive”.

And the Activity [6]?
The Activity was “inactive”.

What about the Activity [7] of the same compound?
The Activity was “inactive”.

And the Activity [8]?
The Activity was 100%.

What about the Activity [9] of the same compound?
Its Activity is “Active”.

And the Activity [10]?
Its Activity is 95%.

What about the Activity [11] of the same compound?
The Activity was “Active”.

And the HC50 at 1 h [12]?
Its HC50 at 1 h is over 1020 µg/mL.

And the Activity [13]?
Its Activity is “Non-Toxic”.

And the survival at 72 h [14]?
Its survival at 72 h is 100%.

And the Activity [15]?
Its Activity is “Non-Toxic”.

What about the Activity [16] of the same compound?
Its Activity is “Non-Toxic”.

What about the Activity [17] of the same compound?
The Activity was “Non-Toxic”.

And the Activity [18]?
The Activity was “Non-Toxic”.

What about the Activity [19] of the same compound?
The Activity was “Non-Toxic”.

And the Activity [20]?
The Activity was “Non-Toxic”.

And the Ki [21]?
The Ki was 5.83 µM.

And the Activity [22]?
The Activity was under 10%.

What about the Activity [23] of the same compound?
Its Activity is under 10%.

What about the Activity [24] of the same compound?
Its Activity is “Active”.

And the Activity [25]?
Its Activity is “inactive”.

What about the Activity [26] of the same compound?
Its Activity is “Active”.

What about the Activity [27] of the same compound?
Its Activity is “Active”.

And the “fractional inhibitory concentration index (FICI)” value [28]?
Its value is 0.14.

And the Activity [29]?
The Activity was “Active”.

And the Activity [30]?
The Activity was “Active”.

What about the MIC [31] of the same compound?
Its MIC is under 0.0312 µg/mL.

Which Activity [1] does the source give for `C[C@H](C(=O)O)N(Cc1cccc(C(=O)O)n1)Cc1cccc(C(=O)O)n1` here?
The Activity was 83%.

What about the IC50 [2] of the same compound?
The IC50 was 4.4 µM.

What about the MIC [3] of the same compound?
The MIC was 128 µg/mL (≈ 356 µM).

And the Activity [4]?
The Activity was “inactive”.

And the Activity [5]?
The Activity was “inactive”.

And the Activity [6]?
Its Activity is “inactive”.

What about the Activity [7] of the same compound?
Its Activity is “inactive”.

What about the Activity [8] of the same compound?
The Activity was 100%.

And the Activity [9]?
Its Activity is “Active”.

What about the Activity [10] of the same compound?
The Activity was 95%.

And the Activity [11]?
Its Activity is “Active”.

And the HC50 at 1 h [12]?
The HC50 at 1 h was over 1020 µg/mL.

And the Activity [13]?
The Activity was “Non-Toxic”.

And the survival at 72 h [14]?
The survival at 72 h was 100%.

What about the Activity [15] of the same compound?
Its Activity is “Non-Toxic”.

What about the Activity [16] of the same compound?
Its Activity is “Non-Toxic”.

What about the Activity [17] of the same compound?
The Activity was “Non-Toxic”.

What about the Activity [18] of the same compound?
Its Activity is “Non-Toxic”.

What about the Activity [19] of the same compound?
The Activity was “Non-Toxic”.

And the Activity [20]?
The Activity was “Non-Toxic”.

And the Ki [21]?
Its Ki is 6.16 µM.

What about the Activity [22] of the same compound?
The Activity was under 10%.

What about the Activity [23] of the same compound?
Its Activity is under 10%.

What about the Activity [24] of the same compound?
The Activity was “Active”.

And the Activity [25]?
Its Activity is “inactive”.

What about the Activity [26] of the same compound?
Its Activity is “Active”.

And the Activity [27]?
Its Activity is “Active”.

And the “fractional inhibitory concentration index (FICI)” value [28]?
The value was 0.14.

What about the Activity [29] of the same compound?
Its Activity is “Active”.

What about the Activity [30] of the same compound?
Its Activity is “Active”.

What about the MIC [31] of the same compound?
The MIC was under 0.0312 µg/mL.

From ChEMBL document CHEMBL4828719, “H2dpa derivatives containing pentadentate ligands: An acyclic adjuvant potentiates meropenem activity in vitro and in vivo against metallo-β-lactamase-producing Enterobacterales” (Eur J Med Chem, 2021)
